Measured values as given in PubChem BioAssay AID330 (DTP/NCI, 2004).
Several values for one entry are separate records, joined by “and”; a condition that tells them apart may be missing. Equal values may be shown once. Inconclusive results and toxic doses are left out. How the source made its calls: active means survival T/C of 150% or more; inactive means T/C below 125% in these data.

Test system: P388 leukemia ip, CD2F1 mice, survival T/C
Experiment: NCI In Vivo Anticancer Drug Screen. Data for tumor model P388 Leukemia (intraperitoneal) in CD2F1 (CDF1) mice
Conditions: endpoint: median survival time, higher = longer survival
How it was run: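 Mice carrying the transplanted tumor received test compound or vehicle. Survival was recorded in each group, and the value is the treated-group measurement divided by that of the vehicle-treated control group.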

[1] = dose: 50.0 mg/kg/injection, schedule: Q01DX005 (ip), vehicle: Klucel (hydroxypropylcellulose) (HPC)
[2] = dose: 100.0 mg/kg/injection, schedule: Q01DX005 (ip), vehicle: Klucel (hydroxypropylcellulose) (HPC)
[3] = dose: 200.0 mg/kg/injection, schedule: Q01DX005 (ip), vehicle: Klucel (hydroxypropylcellulose) (HPC)
[4] = dose: 50.0 mg/kg/injection, schedule: Q01DX009 (ip), vehicle: saline with Tween-80

Measured: T/C

Cc1ccc(C(=O)N=Nc2c(Cl)c(O)c3ccccc3c2O)cc1
inactive: [1] 103 % of control | [2] 99 % of control | [3] 103 % of control

CC(Cl)C(=O)N(C)c1ccccc1 (configuration not stated)
inactive: dose: 100.0 mg/kg/injection, schedule: Q04DX003 (ip), vehicle: Klucel (hydroxypropylcellulose) (HPC) 96 % of control | dose: 200.0 mg/kg/injection, schedule: Q04DX003 (ip), vehicle: Klucel (hydroxypropylcellulose) (HPC) 92 % of control

[O-][N+]1=C(/C=C/C=C/c2ccccc2)CCC1
inactive: dose: 50.0 mg/kg/injection, schedule: Q01DX009 (ip), vehicle: other 95 % of control | dose: 100.0 mg/kg/injection, schedule: Q01DX009 (ip), vehicle: other 107 % of control | dose: 200.0 mg/kg/injection, schedule: Q01DX009 (ip), vehicle: other 118 % of control

COc1ccc(C2c3cc4c(cc3OC3(N5CCCC5)CCCCC23)OCO4)c(OC)c1 (configuration not stated)
inactive: dose: 60.0 mg/kg/injection, schedule: Q01DX005 (ip), vehicle: Klucel (hydroxypropylcellulose) (HPC) 87 % of control | dose: 120.0 mg/kg/injection, schedule: Q01DX005 (ip), vehicle: Klucel (hydroxypropylcellulose) (HPC) 90 % of control | dose: 240.0 mg/kg/injection, schedule: Q01DX005 (ip), vehicle: Klucel (hydroxypropylcellulose) (HPC) 91 % of control

CC(C)(C)N(OC(=O)c1ccc(Cl)cc1)c1ccccc1
inactive: dose: 25.0 mg/kg/injection, schedule: Q01DX009 (ip), vehicle: saline with Tween-80 99 % of control | [4] 99 % of control

O=C1CSC(c2ccc(Cl)cc2)N1CCN1C(=O)CSC1c1ccc(Cl)cc1 (configuration not stated)
inactive: dose: 100.0 mg/kg/injection, schedule: Q04DX003 (ip), vehicle: saline with Tween-80 95 % of control | dose: 200.0 mg/kg/injection, schedule: Q04DX003 (ip), vehicle: saline with Tween-80 93 % of control | dose: 400.0 mg/kg/injection, schedule: Q04DX003 (ip), vehicle: saline with Tween-80 88 % of control

CCC[CH2][Sn]([CH2]CCC)([CH2]CCC)[CH2]S(=O)(=O)O
inactive: dose: 6.25 mg/kg/injection, schedule: Q01DX009 (ip), vehicle: saline 108 % of control | dose: 12.5 mg/kg/injection, schedule: Q01DX009 (ip), vehicle: saline 119 % of control | dose: 100.0 mg/kg/injection, schedule: Q01DX009 (ip), vehicle: saline 116 % of control

F[B-](F)(F)F
inactive: dose: 12.5 mg/kg/injection, schedule: Q01DX009 (ip), vehicle: gum acacia 111 % of control | dose: 25.0 mg/kg/injection, schedule: Q01DX009 (ip), vehicle: gum acacia 118 % of control | dose: 50.0 mg/kg/injection, schedule: Q01DX009 (ip), vehicle: gum acacia 109 % of control and 114 % of control | dose: 100.0 mg/kg/injection, schedule: Q01DX009 (ip), vehicle: gum acacia 123 % of control

CCc1ccccc1C1(Br)C(=O)c2ccccc2C1=O
inactive: dose: 100.0 mg/kg/injection, schedule: Q04DX002 (ip), vehicle: saline 102 % of control | dose: 200.0 mg/kg/injection, schedule: Q04DX002 (ip), vehicle: saline 100 % of control | dose: 400.0 mg/kg/injection, schedule: Q04DX002 (ip), vehicle: saline 101 % of control

CC(=O)[C@H]1C[C@H](O)[C@H]2[C@@H]3CCC4=CC(=O)CC[C@]4(C)[C@H]3C[C@@H](O)[C@@]21C
inactive: [1] 100 % of control | [2] 100 % of control | [3] 97 % of control

O=C1c2ccccc2C(=O)C1C(=Nc1ccccc1Cl)c1ccccc1
inactive: dose: 12.5 mg/kg/injection, schedule: Q01DX005 (ip), vehicle: Klucel (hydroxypropylcellulose) (HPC) 90 % of control | dose: 25.0 mg/kg/injection, schedule: Q01DX005 (ip), vehicle: Klucel (hydroxypropylcellulose) (HPC) 88 % of control | [1] 86 % of control | [2] 94 % of control

CNP(=O)(OC)Oc1ccc(C(C)(C)C)cc1Cl (configuration not stated)
inactive: [4] 112 % of control | dose: 100.0 mg/kg/injection, schedule: Q01DX009 (ip), vehicle: saline with Tween-80 106 % of control | dose: 200.0 mg/kg/injection, schedule: Q01DX009 (ip), vehicle: saline with Tween-80 115 % of control

S=C(SSC(=S)Sc1ccccc1)Sc1ccccc1
inactive: dose: 100.0 mg/kg/injection, schedule: Q04DX002 (ip), vehicle: Klucel (hydroxypropylcellulose) (HPC) 112 % of control | dose: 200.0 mg/kg/injection, schedule: Q04DX002 (ip), vehicle: Klucel (hydroxypropylcellulose) (HPC) 107 % of control | dose: 400.0 mg/kg/injection, schedule: Q04DX002 (ip), vehicle: Klucel (hydroxypropylcellulose) (HPC) 102 % of control

CSC1=Nc2ccccc2N=C(N2CCCC2)C1
inactive: [1] 103 % of control | [2] 97 % of control | [3] 97 % of control
